In patent US10226503B2, “Plant extract composition for reducing topical fat and promoting weight loss as well as applications thereof” (Caliway Biopharmaceuticals Co., Ltd., priority 2014, dated 2019):

Experiments:
[1] = test system: mature adipocytes (3T3-L1); assay: Adipocyte apoptosis assay (V), Annexin V/PI flow cytometry; type: cell-based; settings: 50 ppm, 24 hours, DMSO control 5.14±2.05%
Method: 3T3-L1 cells were incubated in 12-well plates with 1×10^5 cells per well. The medium was replaced with a DMI medium containing 5 μg/ml of insulin, 0.1 μM of dexamethasone, and 0.5 mM of 3-isobutyl-1-methylxanthine (referred as IBMX) on the third day of incubation. After seven days incubation in the medium containing differentiation agent and waiting until the adipocyte cells matures, with the exception of the DMSO solvent control group, 50 ppm of curcumin, resveratrol, composition UL003C6, composition UL003C5, composition UL003C4, composition UL003C3, composition UL003C2, composition UL003C1, composition UL003B, composition UL003R1, composition UL003R2, and composition UL003R3 were added to different wells respectively; there are 13 groups in the experiment, and four replicates were performed in each group.
Please refer to Table 1, which presents the experimental matters and their final concentration in each group. […]
After administration process and 24 hours incubation, cells were collected and Annexin V/PI stain was performed. Cell apoptosis was analyzed by flow cytometry, wherein Annexin V−PI− cells represented the number of the survival mature adipocytes, and Annexin V+PI+ cells represented the number of the apoptotic mature adipocytes; this method is used to compare the apoptosis degree induced by the experimental matters in each group.

[2] = test system: lower inguinal subcutaneous fat; assay: Embodiment 10: resveratrol:curcumin ratio effect (with ELP) on subcutaneous fat of high-fat diet rats; type: in vivo, Sprague-Dawley rats; settings: 5 mg/mL with ELP, injected as in Embodiment 9, relative to HFD group 100±22.3%
Text: The bilateral lower inguinal subcutaneous fat pads of rats were dissected and weighed, and the weights of the bilateral lower inguinal subcutaneous fat pads were summed to calculate the amount of lower inguinal subcutaneous fat. […] The data were presented as mean±SD and analyzed by one-way ANOVA. Statistical results were shown as symbols or letters. Different symbols or letters indicates statistically significant difference (p<0.05), and identical symbols or letters indicates no statistically significant difference (p>0.05).
The preparation of pharmaceutical composition (curcumin solution, resveratrol solution, UL003C solution, UL003R solution, UL005 solution, UL006 solution, UL003C6 solution, or UL003R4 solution) in each group was roughly the same as the experimental procedure in Experiment 9. The only differences were the ratio of resveratrol and curcumin. In this experiment, the guideline of adding all of the ratio of resveratrol and curcumin, the weight of ELP, and the weight of normal saline for injection was shown in Table 1.
In this experiment, the ratios of resveratrol to curcumin in the first group to the eighth group were 0:1, 1:0, 1:19, 9:1, 1:1, 1:30, 1:50, 20:1, respectively, and the final concentrations of resveratrol and curcumin in the pharmaceutical compositions prepared in the first to the eighth group were 5 mg/mL. […]

[3] = Embodiment 10: resveratrol:curcumin ratio effect (with ELP) on body weight gain of high-fat diet rats; type: in vivo, Sprague-Dawley rats; settings: 5 mg/mL with ELP, relative to HFD group 100.0±25.7%
Method: The body weight of each rat was recorded and defined as the “post-experimental body weight” of each rat. The “total body weight gain” of each rat was obtained by subtracting its “pre-experimental body weight” from its “post-experimental body weight”. The “relative weight gain” was obtained by dividing the total body weight gain of each group by the total body weight gain of the HFD group.
The only differences were the ratio of resveratrol and curcumin.
In this experiment, the ratios of resveratrol to curcumin in the first group to the eighth group were 0:1, 1:0, 1:19, 9:1, 1:1, 1:30, 1:50, 20:1, respectively, and the final concentrations of resveratrol and curcumin in the pharmaceutical compositions prepared in the first to the eighth group were 5 mg/mL. That is, the preparation method of pharmaceutical composition in the first to the eighth group, the weight ratios of resveratrol to curcumin were 0:1, 1:0, 1:19, 9:1, 1:1, 1:30, 1:50, 20:1, respectively, and the final concentrations of resveratrol and curcumin in the prepared pharmaceutical compositions were 5 mg/mL. Wherein, when the final concentration of drug was presented as mg/mL, it indicated the number of milligrams of resveratrol and curcumin per milliliter of pharmaceutical composition.

[4] = test system: adipose tissue in the inferior inguinal region; assay: Embodiment 10: observation of the injected inferior inguinal region after dissection; type: in vivo, Sprague-Dawley rats; settings: FIG. 11A-F
Text: There were 9 groups in this experiment, that is, the HFD group, the curcumin group, the resveratrol group, the UL003C group, the UL003R group, the UL005 group, the UL006 group, the UL003C6 group, and the UL003R4 group. The rats were fed and injected in the same manner described in Embodiment 9.

[5] = test system: mature adipocytes (3T3-L1); assay: Adipocyte apoptosis assay (IV), Annexin V/PI flow cytometry; type: cell-based; settings: 100 ppm, 24 hours
Method: In this embodiment, the effect of composition UL003C in the present invention on mature adipocytes apoptosis promotion was compared with that of the well-known sodium deoxycholate. In this embodiment, 3T3-L1 cells were incubated in 12-well plates with 1×10^5 cells per well. The medium was replaced with an incubation fluid containing 5 μg/ml of insulin differentiation agent, 1 μM of dexamethasone, and 0.5 mM of 3-isobutyl-1-methylxanthine on the fourth day of incubation. After four days incubation in the incubation fluid containing differentiation agent and waiting until the adipocyte cells matures, with the exception of the DMSO solvent control group, 100 ppm of composition UL003C and sodium deoxycholate were added to different wells respectively; there are three groups in the experiment, and three replicates were performed in each group. After administration process and 24 hours incubation, cells were collected and Annexin V/PI stain was performed. Cell apoptosis was analyzed by flow cytometry, wherein Annexin V−PI− cells represented the number of the survival mature adipocytes, and Annexin V+PI+ cells represented the number of the apoptotic mature adipocytes; this method is used to compare the apoptosis degree induced by the experimental matters in the two groups.

## COc1cc(/C=C/C(=O)CC(=O)/C=C/c2ccc(O)c(OC)c2)ccc1O [curcumin]
[1]
  percentage of apoptotic cells: 15.43±4.31%
[2]
  relative weight of the lower inguinal subcutaneous fat: 90.4±12.6%
[3]
  relative weight gain: 103.6±7.2%
[4]
  ulcer / curcumin precipitation in the inferior inguinal region (injection site): curcumin precipitation was observed

## sodium deoxycholate
[5]
  mature adipocytes apoptosis compared to DMSO solvent control group: no significant difference

## Oc1ccc(C=Cc2cc(O)cc(O)c2)cc1 [resveratrol]
[1]
  percentage of apoptotic cells: 8.48±3.23%
[2]
  relative weight of the lower inguinal subcutaneous fat: 85.7±5.1%
[3]
  relative weight gain: 91.7±11.4%
[4]
  ulcer / curcumin precipitation in the inferior inguinal region (injection site): ulcer
